Active and inactive are the calls of the source. No cut-off for these calls is given here.
Columns and labels:
[1] = tested on: C1 41; experiment: Cytotoxicity against mouse JB6 C1 41 cells up to 200 uM by MTS assay; type: functional, cell-based
[2] = tested on: HL-60; experiment: Induction of apoptosis in human HL60 cells at 100 uM after 24 hrs by flow cytometry relative to control; type: functional
[3] = Inhibition of EGF-induced malignant transformation of mouse JB6 C1 41 cells in soft agar; type: functional

Compound | Activity [1] | Activity [2] | INCC50 [3]
CC(C)=CCc1cc2[nH]c3c(c2cc1CC=C(C)C)C[C@@H]1CC[C@@]2(O)C4=CC(=O)[C@@H]5O[C@@]4(CC[C@]2(C)[C@@]31C)OC5(C)C | inactive |  | 
CC1(C)C=C2c3cc4[nH]c5c(c4cc3C[C@@H]2C(C)(C)O1)C[C@@H]1CC[C@@]2(O)C3=CC(=O)[C@@H]4O[C@@]3(CC[C@]2(C)[C@@]51C)OC4(C)C [SHEARININE A] | inactive | 10% | 
CC1(C)C=C2c3cc4[nH]c5c(c4cc3[C@@H](O)[C@@H]2C(C)(C)O1)C[C@@H]1CC[C@@]2(O)C3=CC(=O)[C@@H]4O[C@@]3(CC[C@]2(C)[C@@]51C)OC4(C)C [SHEARININE D] | inactive | 39% | 
CC1(C)C=C2c3cc4[nH]c5c(c4cc3[C@H](O)[C@@H]2C(C)(C)O1)C[C@@H]1CC[C@@]2(O)C3=CC(=O)[C@@H]4O[C@@]3(CC[C@]2(C)[C@@]51C)OC4(C)C [SHEARININE E] | inactive | 34% | 13 µM
